Data: patent publication US9968635B2, “Treatment of skin and soft tissue infection with nitric oxide” (priority 2012, dated 2018)

Columns and labels:
[1] = test system: micro-capillary blood flow to skin; experiment: Laser Doppler study with closed Hilltop chamber on forearm, 10,000 ppm NO (Example 5); assay type: in vivo, human; conditions: applied to the skin at 1/10% in alcohol
From the text: The formulation used in these studies contained nitric oxide dispersed in a lipid matrix. […] Nitric oxide is a very rapid acting molecule, and these studies used a system that employed laser Doppler with a covered chamber. The formulation was placed into the chamber and then attached to the skin by an adhesive layer on the covering. This provided a stable measuring device as determined by multiple normal evaluations of the capillary blood flow without treatment of nitric oxide.
A known positive control, methyl nicotinate, was applied to the skin at a concentration of 1/10% in alcohol. […] The vascular dynamics are such that when the blood vessels dilate physical parameters follow Bernoulli's law. […] The laser Doppler device accurately measured these parameters.
In these studies, the participants were healthy females aged 30 to 55 years. They were in good health as determined by the medical history and were not taking any prescription medications. All study participants read and signed the informed consent statement prior to any study procedures being performed. […]
A Moor Instruments DRT4 Laser Doppler Blood Flow Monitor (Devon, England) was used in these studies. The laser Doppler technique measured blood flow in the microcapillaries of the skin that are close to the skin surface and the blood flow in underlying arterioles and venules that help to regulate skin temperature. […]

[2] = test system: capillary circulation of the skin; experiment: Laser Doppler study of creams in five human subjects (Example 7); assay type: in vivo; conditions: positive control formulation containing 0.1% methyl nicotinate
From the text: This example illustrates delivery of nitric oxide formulations to five human subjects, using procedures and formulations similar to those discussed in Example 5. Each person served as their own control for the testing. A Moor Instruments Laser Doppler was used to determine circulation. […] The formulations used produce positive, almost immediate results when applied to the skin which, in these studies, was manifested by vasodilatation of the cutaneous vascular system. For each subject, the following creams were applied: a negative control formulation (containing no NO), 0.010 gram of a 10,000 ppm NO formulation, 0.020 gram of a 10,000 ppm NO formulation, and a positive control formulation containing 0.1% methyl nicotinate. The formulations were prepared using procedures similar to those discussed in Example 1.

[3] = Weight gain of carriers on bubbling nitric oxide gas; assay type: physicochemical; conditions: NO gas bubbled 40 hr, 25 °C
Experimental: This example illustrates one technique for preparing a composition in accordance with one embodiment of the invention. An accurate amount of a carrier (HNC 167-62) (see below) was introduced into a system. The carrier weight used in these experiments was approximately 250 g and the vessel size was 500 ml. The vessel was equipped with a mechanical stirrer, gas inlet, and gas outlet and was previously purged with argon for about an hour. The temperature of the carrier was kept at about 25-30° C. NO gas regulated at 5 psi (1 psi is about 6,900 Pa) and was then introduced at a controlled rate of about 1 bubble/s with continuous stirring. […] After 6 hours, the weight of the carrier had increased by 0.15%, by 12 hours by 0.25%, and by 24 hours by 0.56%. These increases in weight were believed to be significant considering the relative small molecular weight of NO versus the carrier. […] The carrier also can solidify upon cooling if the carrier is initially a solid at lower temperature.
Each carrier was taken in a 500 mL three necked flask equipped with a mechanical stirrer, gas inlet and a gas outlet. The system was purged with argon for one hour at room temperature (25° C.). Then nitric oxide gas was bubbled into the system. Then, nitric oxide gas was bubbled through carrier for stipulated amount of time. The changes in weight and color were noted. […]

| SMILES | laser Doppler response of positive control [1] | vasodilatation [2] | % Wt. gain [3] [%] | Wt. Gain [3] [g] |
| --- | --- | --- | --- | --- |
| COC(=O)c1cccnc1 [methyl nicotinate] | rapid response typical of the vasodilator | vasodilatation was observed |  |  |
| OCCCO [1,3-Propanediol, 1,3-propanediol] |  |  | 0.09 | 0.16 |
